Laboratory results taken from publication PMC4546402, “Structural Model of the Bilitranslocase Transmembrane Domain Supported by NMR and FRET Data” (PLoS ONE, 2015).
Residues, ends and D or L forms follow the SMILES beside them. No end group written: not given here.

Assays:
TM3:TM3 = experiment: FRET titration of Atto488/Atto594-labelled peptides in SDS micelles, TM3:TM3 pair; assay type: binding; conditions: Atto488 donor/Atto594 acceptor, SDS micelle, TM3 with TM3, ratio of donor emission at 523 nm to acceptor emission at 627 nm, read-out: dissociation constant Kd
TM2:TM2 = experiment: FRET titration of Atto488/Atto594-labelled peptides in SDS micelles, TM2:TM2 pair; assay type: binding; conditions: Atto488 donor/Atto594 acceptor, SDS micelle, TM2 with TM2, ratio of donor emission at 523 nm to acceptor emission at 627 nm, read-out: dissociation constant Kd
bilitranslocase (BTL) = conditions: ref [10]; cited from earlier work

Molecule: GSVQCAGLISLPIAIEFTYKKKK [TM3:TM3]
- Kd (TM3:TM3): 191 µM

Molecule: CC[C@H](C)[C@H](NC(=O)[C@H](C)NC(=O)[C@H](CCCCN)NC(=O)[C@H](CS)NC(=O)[C@H](CC(C)C)NC(=O)CNC(=O)[C@H](CO)NC(=O)[C@@H](NC(=O)CNC(=O)[C@H](C)NC(=O)[C@H](CO)NC(=O)[C@H](Cc1ccccc1)NC(=O)[C@@H]1CCCN1C(=O)[C@H](CO)NC(=O)[C@H](CCC(N)=O)NC(=O)[C@H](CC(C)C)NC(=O)[C@@H](NC(=O)[C@H](C)NC(=O)[C@@H](NC(=O)[C@H](Cc1ccccc1)NC(=O)[C@H](CC(C)C)NC(=O)[C@H](CS)NC(=O)[C@H](Cc1ccccc1)NC(=O)[C@H](CO)NC(=O)[C@@H](N)CO)C(C)C)[C@@H](C)O)C(C)C)C(=O)N[C@@H](CC(C)C)C(=O)N[C@@H](CC(C)C)C(=O)N[C@@H](CCCCN)C(=O)N[C@@H](CCCCN)C(=O)N[C@@H](CCCCN)C(=O)N[C@@H](CCCCN)C(=O)O [TM2:TM2] (H-SSFCLFVATLQSPFSAGVSGLCKAILLKKKK-OH)
- Kd (TM2:TM2): 71.9 µM

Molecule: C=CC1=C(C)/C(=C/c2[nH]c(Cc3[nH]c(/C=C4\NC(=O)C(C)=C4C=C)c(C)c3CCC(=O)O)c(CCC(=O)O)c2C)NC1=O [bilirubin]
- allosteric effect on BTL (bilitranslocase (BTL)): positive allosteric effectors, inducing the BTL into its high-affinity state
- effect on conversion between the two metastable BTL conformers (bilitranslocase (BTL)): accelerated

Molecule: O=C(O)c1cccnc1 [nicotinic acid]
- allosteric effect on BTL (bilitranslocase (BTL)): positive allosteric effectors, inducing the BTL into its high-affinity state
